Patent US11198695B2, “Fused ring derivative having MGAT-2 inhibitory activity” (Shionogi & Co., Ltd., priority 2017, dated 2021)

Legend:
[1] = Metabolism stability test; assay type: in vitro ADME; conditions: human liver microsomes, 30 minutes, 37° C., NADPH, 0.5 μmol/L of test compound
Protocol: Using commercially available pooled human hepatic microsomes, the compound of the present invention was reacted for a constant time, a remaining rate was calculated by comparing a reacted sample and an unreacted sample, thereby, a degree of metabolism of the compound of the present invention in liver was assessed.
A reaction was performed (oxidative reaction) at 37° C. for 0 minute or 30 minutes in the presence of 1 mmol/L NADPH in 0.2 mL of a buffer (50 mmol/L Tris-HCl pH 7.4, 150 mmol/L potassium chloride, 10 mmol/L magnesium chloride) containing 0.5 mg protein/mL of human liver microsomes. After the reaction, 50 μL of the reaction solution was added to 100 μL of a methanol/acetonitrile=1/1 (v/v) solution, mixed and centrifuged at 3000 rpm for 15 minutes. The compound of the present invention in the supernatant was quantified by LC/MS/MS, and a remaining amount of the compound of the present invention after the reaction was calculated, letting a compound amount at 0 minute reaction time to be 100%. (Result) Remaining rate was shown at 0.5 μmol/L of test compound.

[2] = biological target: hERG channel (IKr) (Homo sapiens (Human), UniProt Q12809); assay: hERG test; assay type: cell-based; conditions: pH 7.4, CHO cells expressing hERG channel, 10 μmol/L of test compound, read-out: % inhibition of tail peak current (IKr)
Source text: For the purpose of assessing risk of an electrocardiogram QT interval prolongation of the compound of the present invention, effects of the compound of the present invention on delayed rectifier K^+ current (IKr), which plays an important role in the ventricular repolarization process, was studied using CHO cells expressing human ether-a-go-go related gene (hERG) channel.
After a cell was retained at a membrane potential of −80 mV by whole cell patch clamp method using an automated patch clamp system (QPatch; Sophion BIoscience A/S), IKr induced by application of a leak potential of −50 mV followed by depolarization pulse stimulation at +20 mV for 2 seconds and, further, repolarization pulse stimulation at −50 mV for 2 seconds, was recorded. […] From the recording IKr, an absolute value of the tail peak current was measured based on the current value at the resting membrane potential using analysis software (Falster Patch; Sophion Bioscience A/S). Further, the % inhibition of tail peak current for the compound of the present invention relative to the tail peak current after application of the vehicle is calculated to assess influence of the compound of the present invention on IKr. (Result) % inhibition was shown at 10 μmol/L of test compound.

[3] = Solubility test (1% DMSO addition, pH 6.8 artificial intestinal juice); assay type: physicochemical; conditions: pH 6.8 artificial intestinal juice with 1% DMSO, kinetic from dmso stock, 16 hours at 25° C.
Protocol: The solubility of the compound of the present invention was determined under 1% DMSO addition conditions. 10 mmol/L solution of the compound was prepared with DMSO, and 6 μL of the solution of the compound of the present invention was added to 594 μL of pH 6.8 artificial intestinal juice (118 mL of 0.2 mol/L NaOH test solution and water were added to 250 mL of 0.2 mol/L potassium dihydrogen phosphate test solution to reach 1000 mL). The mixture was left standing for 16 hours at 25° C., and the mixture was vacuum-filtered. The filtrate was two-fold diluted with methanol/water=1/1 (V/V), and the compound concentration in the filtrate was measured with HPLC or LC/MS/MS by the absolute calibration method.

Sequence of hERG channel (IKr) (Q12809 whole entry): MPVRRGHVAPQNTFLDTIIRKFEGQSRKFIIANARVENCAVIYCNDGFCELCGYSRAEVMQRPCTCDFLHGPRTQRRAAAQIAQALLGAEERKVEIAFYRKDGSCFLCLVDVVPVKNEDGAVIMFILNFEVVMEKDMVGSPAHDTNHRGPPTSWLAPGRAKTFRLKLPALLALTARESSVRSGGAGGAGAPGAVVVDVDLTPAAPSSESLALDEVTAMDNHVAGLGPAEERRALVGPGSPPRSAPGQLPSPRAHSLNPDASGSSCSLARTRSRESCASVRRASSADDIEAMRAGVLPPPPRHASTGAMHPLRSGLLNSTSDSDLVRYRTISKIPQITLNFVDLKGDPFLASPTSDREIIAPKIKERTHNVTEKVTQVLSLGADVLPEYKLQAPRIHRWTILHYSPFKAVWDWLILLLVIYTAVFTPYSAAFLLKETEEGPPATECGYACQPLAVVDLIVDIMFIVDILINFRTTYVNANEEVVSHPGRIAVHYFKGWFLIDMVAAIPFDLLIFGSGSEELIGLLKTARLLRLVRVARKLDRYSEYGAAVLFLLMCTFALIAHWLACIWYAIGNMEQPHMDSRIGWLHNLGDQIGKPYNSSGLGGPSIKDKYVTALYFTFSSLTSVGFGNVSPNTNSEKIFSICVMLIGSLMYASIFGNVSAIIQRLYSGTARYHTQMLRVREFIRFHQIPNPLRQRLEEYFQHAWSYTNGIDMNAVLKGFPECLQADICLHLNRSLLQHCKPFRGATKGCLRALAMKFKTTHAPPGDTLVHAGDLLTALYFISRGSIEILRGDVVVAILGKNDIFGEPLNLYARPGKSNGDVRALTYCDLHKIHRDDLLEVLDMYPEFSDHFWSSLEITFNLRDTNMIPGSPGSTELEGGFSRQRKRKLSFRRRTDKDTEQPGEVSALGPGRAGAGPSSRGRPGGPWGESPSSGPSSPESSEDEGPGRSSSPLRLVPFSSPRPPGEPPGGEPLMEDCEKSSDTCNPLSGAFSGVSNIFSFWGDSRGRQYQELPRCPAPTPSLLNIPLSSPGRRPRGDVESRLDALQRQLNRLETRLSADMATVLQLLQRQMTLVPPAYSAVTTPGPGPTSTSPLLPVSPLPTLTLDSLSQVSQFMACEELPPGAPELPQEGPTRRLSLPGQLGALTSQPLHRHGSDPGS

Remaining rate (%) [1]: 76.8%
solubility at 16 h [3]: > 50 µM
Structure (SMILES): CS(=O)(=O)CC(=O)Nc1c2c(nn1CCCOC(F)(F)F)C[C@]1(CCc3cc(OCC(F)(F)F)ccc31)NC2=O [Compound I-253]
inhibition at 10 min, 10 μmol/L [2]: 6.9%
